Measured values from PubChem BioAssay (NCI).
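Grown in 96-well plates, cells were treated for 48 hours with each compound at five concentrations. Insufficient inhibition: endpoint recorded as highest concentration tested. TGI marks complete inhibition of growth.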

What was measured:
Assay in all cases: DTP human tumour cell line panel, 48 h
A498 renal = test system: A498 renal
HOP-92 NSCLC = test system: HOP-92 NSCLC
IGROV1 ovarian = test system: IGROV1 ovarian
KM12 colon = test system: KM12 colon
NCI-H23 lung = test system: NCI-H23 lung
OVCAR-4 ovarian = test system: OVCAR-4 ovarian
OVCAR-5 ovarian = test system: OVCAR-5 ovarian
PC-3 prostate = test system: PC-3 prostate
SNB-19 CNS = test system: SNB-19 CNS
SW-620 colon = test system: SW-620 colon
TK-10 renal = test system: TK-10 renal

Row | SMILES | TGI (A498 renal) [µM] | TGI (HOP-92 NSCLC) [µM] | TGI (IGROV1 ovarian) [µM] | TGI (KM12 colon) [µM] | TGI (NCI-H23 lung) [µM] | TGI (OVCAR-4 ovarian) [µM] | TGI (OVCAR-5 ovarian) [µM] | TGI (PC-3 prostate) [µM] | TGI (SNB-19 CNS) [µM] | TGI (SW-620 colon) [µM] | TGI (TK-10 renal) [µM]
1 | O=[N+]([O-])c1ccc2nc(Cl)n[n+]([O-])c2c1 | 21.2 | 19.6 | 25.6 | 51.8 | 36.6 | 26.8 | 31.3 | 28.4 | > 61.5 | 35.5 | 30.8
2 | c1ccc2c(CN3CCN(Cc4c[nH]c5ccccc45)CC3)c[nH]c2c1 | 27.8 | 31.2 | 27.4 | 33.1 | 42.7 | > 100 | 36.4 | 43.7 | 45.9 | 93.9 | 29.1
3 | COc1ccc(CC2C3=C(CCN2C(=O)C2CCC2)CC2(CC3)OCCO2)cc1O (centres undefined) | > 100 | > 100 | > 100 | > 100 | 44.6 | > 100 | > 100 | > 100 | > 100 | > 100 | > 100
4 | CCN1CCCC(C#N)(c2ccccc2)CC1 (centres undefined) | > 100 | > 100 | > 100 | > 100 | > 100 | > 100 | > 100 | > 100 | > 100 | > 100 | > 100
5 | CCCCc1ccc(Nc2nc(Cl)c3ncn(COCCOC(C)=O)c3n2)cc1 | 59.3 | 5.33 | 31.6 | 41.3 | 31.4 | > 100 | 35.5 | 32.2 | 38.7 | 43.8 | 35.1
6 | C=CCNC(=S)N=Nc1c(O)n(CN2CCOCC2)c2ccc([N+](=O)[O-])cc12 | 65.6 | 83.3 | > 100 | > 100 | > 100 | > 100 | > 100 | > 100 | > 100 | > 100 | 93.1
7 | O=C1C(C(O)(C(F)(F)Cl)C(F)(F)Cl)CCCC1C(O)(C(F)(F)Cl)C(F)(F)Cl (centres undefined) | > 10 | > 10 | > 10 | > 10 | > 10 | > 10 | > 10 | > 10 | > 10 | > 10 | > 10
8 | CCCC(=O)Nc1cc(/C=C/C(=O)N2CC(CCl)c3c2cc(OCc2ccccc2)c2[nH]cc(C)c32)n(C)c1 (centres undefined) | 1.14 | 0.213 | > 25 | 0.602 | 0.0654 | 0.889 | 1.22 | > 13.1 | 24.6 | > 25 | 2.47
9 | C=C1CCCC2[C@](C)(CC3=C(Cl)C(=O)C=C(OC)C3=O)C(C)CC[C@]12C (some centres undefined) | 16.2 | 14.7 | 4.76 | 8.14 | 13.1 | 14.2 | 9 | 6.64 | 13.9 | 10.4 | 11.6
10 | COC(=O)c1c(C)cccc1C1CN=NC12Cc1ccccc1C2=O (centres undefined) | > 100 | > 100 | > 100 | > 100 | > 100 | > 100 | > 100 | > 100 | > 100 | > 100 | > 100
11 | CCCCCC1CC=CC(=O)O1 (centres undefined) | > 100 | 37.7 | 17.7 | 20.5 | 43 | 13.8 | 21.4 | 26.3 | 54.1 | 29.1 | 38.1
12 | CC(=O)OC(CN1CCN(c2ccccn2)CC1)Cn1sc2nc(C)cc(C)c2c1=O (centres undefined) | 32.2 | > 100 | 33.4 | 49 | 43 | 55.4 | 31.5 | 31.3 | > 100 | > 100 | 31.3
13 | COc1cc2c(cc1C[C@H]1[C@@H]3C[C@H]4c5c(c6ccccc6n5C)C[C@@H]([C@@H]3CO[C@]1(C)OC(C)=O)N4C)c1c(n2C)C2C[C@H]3C(C(C)=O)=COC[C@H]3[C@H](C1)N2C | > 25 | > 25 | > 25 | 5.27 | > 25 | > 25 | 11.6 | 2.7 | > 25 | 11.3 | 16.1
14 | CCN(CC)Cc1cc(Nc2c3ccccc3nc3c2[nH]c2ccccc23)cc(CN(CC)CC)c1O | 2.89 | 3.86 | 3.29 | 10.6 | 2.62 | 1.81 | 9.21 | 2.75 | 5.75 | 2.47 | 11.7
15 | CN(C)CCNc1nc2ccccc2c2c1CCCC2 | 35.8 | 58.3 | 38.3 | 41.4 | > 100 | > 100 | > 100 | > 100 | > 100 | 86 | 29.7
16 | COC(=O)CCC(C)[C@H]1CCC2C3C(C[C@H](OC(C)=O)[C@@]21C)[C@@]1(C)CCC2(C[C@H]1C[C@H]3OC(C)=O)OOC1(CCCC1)OO2 (some centres undefined) | > 100 | 64.8 | 25.4 | > 100 | > 100 | 87.6 | > 100 | > 100 | > 100 | > 100 | > 100
17 | Cc1ccc(S(=O)(=O)CN2C(=O)C(c3ccccc3)(c3ccccc3)C23OC(c2ccc(Cl)cc2)=CC3=O)cc1 (centres undefined) | > 10 | > 10 | > 10 | > 10 | > 10 | > 10 | > 10 | > 10 | > 10 | > 10 | > 10
18 | CCOc1ccc2nc3nc(=O)[nH]c(C)c3c(NCCCN(CC)CC)c2c1 | > 100 | > 100 | > 100 | > 100 | > 100 | > 100 | > 100 | > 100 | > 100 | > 100 | > 100
19 | Oc1cc(O)c2ccc(-c3ccc(O)c(O)c3)[o+]c2c1 | > 100 | > 100 | > 100 | > 100 | > 100 | > 100 | > 100 | > 100 | > 100 | > 100 | > 100
20 | O=Cc1c2n(c3ccccc13)N[C@@](Cc1ccc(O)cc1)(C(=O)O)C2 | > 100 | > 100 | > 100 | > 100 | > 100 | > 100 | > 100 | > 100 | > 100 | > 100 | > 100
21 | CC(=O)Nc1ccc(NS(=O)(=O)c2ccc3nc(C)n(NS(=O)(=O)c4ccc(NC(C)=O)cc4)c(=O)c3c2)cc1 | > 100 | > 100 | > 100 | > 100 | > 100 | > 100 | > 100 | > 100 | > 100 | > 100 | > 100
22 | Cc1sc2[nH]c(=O)oc(=O)c2c1C | > 100 | > 100 | > 100 | > 93.3 | > 100 | > 100 | > 100 | > 100 | > 100 | > 100 | > 100
23 | O=C(O)CSC(CC1(c2ccc(Cl)cc2)NC(=O)CS1)c1ccc(Cl)cc1 (centres undefined) | > 100 | 87.6 | > 100 | > 100 | > 100 | > 100 | > 100 | > 100 | > 100 | > 100 | > 100
24 | C(/C=C/c1ccccc1)=Nc1ccc2c(c1)Cc1ccccc1-2 | > 100 | > 100 | > 100 | > 100 | > 100 | > 100 | > 100 | > 100 | > 100 | > 100 | > 100
25 | CC1=NN(c2nc(N)nc(CBr)n2)C(C)(C)C1 | 25.7 | 1.08 | 3.29 | 23.5 | 29.9 | 20.6 | 13.8 | 18 | 36.6 | 12.7 | 14.9
26 | NC(CSCc1ccc(I)cc1)C(=O)O (centres undefined) | > 100 | > 100 | > 100 | > 100 | > 100 | > 100 | > 100 | > 100 | > 100 | > 100 | > 100
27 | Cc1ccc(/C=N/n2c(Cc3ccccc3)n[nH]c2=O)cc1 | > 100 | 83.4 | > 100 | > 100 | > 100 | > 100 | > 100 | > 100 | > 100 | > 100 | > 100
28 | CCc1c(CN)c(CC)c(CNC2=NCCN2)c(CC)c1CNC1=NCCN1 | > 100 | > 100 | > 100 | > 100 | > 100 | > 100 | > 100 | > 100 | > 100 | > 100 | > 100
29 | COC(=O)/C(=N\NC(N)=O)C(C(=O)C(=O)Nc1ccccc1OC)c1nc2ccc([N+](=O)[O-])cc2[nH]c1=O (centres undefined) | > 100 | > 100 | > 100 | > 100 | > 100 | > 100 | > 100 | > 100 | > 100 | > 100 | > 100
